In patent EP0412762A2, “Peptide inhibitors of human papilloma virus protein binding to retinoblastoma gene proteins” (priority 1989, dated 1991):
Non-standard residues stand in square brackets, D forms with d. Residues, ends and D or L forms follow the SMILES beside them. No end group written: not given here. *: point of attachment. Abu = CC[C@H](N)C(=O)O; Acm = CC(=O)NC*

Columns and labels:
[1] = target: T1, binding of the HPV-16 E7 protein to the RBG protein (Homo sapiens, UniProt P06400); experiment: Binding inhibition assay in vitro: immune precipitation of RBG protein from Hela lysate with radiolabelled HPV-16 E7 (Example 2); details: for inhibition of the binding of the HPV E7 protein to the RBG protein (in words): summary statement
T1 construct: Whole cell lysates of Hela cells were used as a source of human RBG protein; endogenous in cells; host or cells: HeLa whole cell lysate (RB); rabbit reticulocyte lysate, T7 promoter clone (E7)
T1 sequence (P06400 1-928): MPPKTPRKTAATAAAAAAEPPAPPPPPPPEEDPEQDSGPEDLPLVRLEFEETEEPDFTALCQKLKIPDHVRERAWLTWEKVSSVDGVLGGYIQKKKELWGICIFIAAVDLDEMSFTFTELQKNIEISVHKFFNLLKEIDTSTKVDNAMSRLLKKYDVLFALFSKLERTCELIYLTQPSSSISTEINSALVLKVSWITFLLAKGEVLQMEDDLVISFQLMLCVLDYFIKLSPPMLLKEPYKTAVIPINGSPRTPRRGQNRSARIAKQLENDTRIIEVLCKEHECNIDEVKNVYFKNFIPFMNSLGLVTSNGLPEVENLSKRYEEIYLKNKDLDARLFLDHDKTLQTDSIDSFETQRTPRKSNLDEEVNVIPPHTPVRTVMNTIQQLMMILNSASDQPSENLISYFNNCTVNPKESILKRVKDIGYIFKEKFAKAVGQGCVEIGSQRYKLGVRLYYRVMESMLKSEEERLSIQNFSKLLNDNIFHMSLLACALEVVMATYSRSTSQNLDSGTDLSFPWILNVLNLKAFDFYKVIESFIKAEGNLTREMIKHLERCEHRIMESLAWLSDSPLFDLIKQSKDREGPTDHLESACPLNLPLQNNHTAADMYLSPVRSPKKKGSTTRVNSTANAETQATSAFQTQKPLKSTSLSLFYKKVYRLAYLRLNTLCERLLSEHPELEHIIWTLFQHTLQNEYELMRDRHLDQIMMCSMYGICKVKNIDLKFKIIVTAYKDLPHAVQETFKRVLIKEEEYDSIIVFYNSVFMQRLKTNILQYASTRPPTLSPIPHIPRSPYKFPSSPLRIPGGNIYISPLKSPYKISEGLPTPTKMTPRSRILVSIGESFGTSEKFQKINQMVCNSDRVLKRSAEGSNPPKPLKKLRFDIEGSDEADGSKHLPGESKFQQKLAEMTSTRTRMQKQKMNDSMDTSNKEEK
Experimental: Peptide A, Peptide B, and Acetyl-GRP 20-27 were assayed for their abilities to inhibit the binding of the HPV-16 E7 protein to the RBG protein. Binding inhibition assays were carried out in vitro using a modification of the procedure described by N. Dyson et al., Science 243: 934-936 1989. Whole cell lysates of Hela cells were used as a source of human RBG protein. Rabbit reticulocyte cell free lysates that permit transcription and translation of exogenously added DNAs served as a source of HPV-16 E7 protein. The HPV-16 E7 gene was added to the rabbit reticulocyte lysate as a recombinant DNA clone under the control of a T7 promoter and incubated for 60 minutes at 30°C in the presence of radiolabeled methionine to allow transcription of the HPV-16 E7 gene and translation into E7 protein that contained radiolabeled methionine. The Hela cell and rabbit reticulocyte lysates were then mixed and incubated at 4°C for 90 minutes. After further manipulations a murine antibody against the RBG protein was added and incubated at 4°C for 60 minutes. Next, a rabbit anti-mouse IgG antibody and protein A sepharose was added to the reaction mixture in order to immune precipitate the RBG protein. At the same time, the E7 protein that was bound to the RBG protein was also precipitated. After an additional 60 minute incubation at 4°C the precipitated proteins were isolated by centrifugation and examined by polyacrylamide gel electrophoresis. Following electrophoresis, the polyacrylamide gel was dried and exposed to x-ray film. […] This biochemical protocol yields a quantitative estimate of the binding of HPV-16 E7 protein to the RBG protein in vitro.
These biochemical reactions can be run with or without added synthetic peptides to evaluate the effects of various concentrations of peptides on the binding of the HPV E7 protein to the RBG protein. In our studies, the addition of peptide A to these reaction mixtures at concentrations of 40 uM, 20 uM, or 2 uM caused a reduction in HPV-16 E7 protein binding to the RBG protein of 90%, 90% and 60% respectively. Addition of Peptide B or Acetyl-GRP 20-27 to the reaction mixture at concentrations up to 60 uM had no effect on HPV-16 E7 protein binding to the RBG protein.

RBG Protein/E7 [2] = target: T2, RBG Protein/E7 (Homo sapiens, UniProt P06400); experiment: In vitro solution assay for E7/RBG protein complex formation (immunoprecipitation, T24 cell lysates); format: binding; set-up: Cell lysates used as a source of RBG protein were prepared from human T24 bladder carcinoma cells; endogenous in cells; host or cells: human T24 bladder carcinoma cell lysate
T2 sequence (P06400 1-928): T1 sequence (P06400 1-928)
Experimental: (§1) An in vitro solution assay used for the detection of complex formation between E7 protein and p105-RB has been described by Dyson, et al (30). Cell lysates used as a source of RBG protein were prepared from human T24 bladder carcinoma cells as described (30). C36 and the control antibody Pb416 are monoclonal antibodies directed against RGB protein and SV40 large T protein, respectively. These antibodies were a generous gift from E. Harlow (Cold Spring Harbor Laboratories, Cold Spring Harbor, NY). Immunoprecipitates of E7/RBG protein binding reactions containing serially diluted peptide antagonists were dissolved in 35 µl gel loading buffer (30). Five µl was counted directly in Right Safe (Beckman, Palo Alto, CA.) scintillation cocktail and 25 µl was subjected to sodium dodecyl sulphate poly-acrylamide gel electrophoresis. Gels were dried and exposed to Kodak X-AR film at -70 °C overnight. In order to more rapidly assay large numbers of samples and more easily quantitate the binding results, we developed a plate binding assay for the detection of E7/RBG protein association. Purified recombinant E7 was resuspended in 0.1 M sodium carbonate, pH 9.5, at 1 ng/µl. Fifty microliters of this solution was placed into each well of a polyvinyl chloride microtiter plate (COSTAR 2596, Cambridge, MA.). The plate was gently agitated for 18 hours at 4 °C. The E7 solution was aspirated off and 100 µl of plate blocking buffer (PBB) [50mM Hepes 7.0, 250 mM sodium chloride, 0.1% NP4O, 0.5% (w/v) pigskin gelatin, and 0.02% sodium azide] was added per well. The buffer was removed and the plate was washed three times in the above buffer without the gelatin (PB). Five femtomoles of ³⁵S-methionine (Amersham 1100 Ci/mmole, Arlington Heights, IL.) labeled RBG protein prepared in a rabbit reticulocyte lysate was diluted in PB buffer containing various peptide antagonists to a final volume of 50 µl and added to the E7 treated plate. The plate was again incubated at 4 °C with agitation for 1 hour after which the solution was aspirated and each well washed five times with PB. The top of the plate was removed using a hot wire cutting apparatus (D. Lee, Sunnyvale, CA). Each well was placed in 3 ml of Ready Safe scintillation cocktail (Beckman, Palo Alto, CA.) and counted for 1 minute.
(§2) IC₅₀ values represent the average of at least two experiments in which each concentration of inhibitor was tested in triplicate. The variation between experiments was less than 10%. The 50% inhibition concentrations are micromolar. ND = not determined.

RBG Protein/E7 [3] = target: T2, RBG Protein/E7; experiment: Plate binding assay for E7/RBG protein association (E7-coated plate, 35S-labelled RBG protein); set-up: made in house; host or cells: rabbit reticulocyte lysate (RB, in vitro translation)
Experimental: as §1, §2

[4] = average of at least two experiments, triplicate, read-out: SOLUTION ASSAY RBG Protein/E7 IC₅₀
[5] = average of at least two experiments, triplicate, read-out: PLATE ASSAY RBG Protein/E7 IC₅₀

Row | Molecule | IC50 (RBG Protein/E7 [2]; [4]) | IC50 (RBG Protein/E7 [3]) | IC50 (RBG Protein/E7 [3]; [5]) | also measured
1 | CSCC[C@H](NC(=O)[C@H](CC(C)C)NC(=O)[C@H](Cc1c[nH]cn1)NC(=O)CNC(=O)[C@@H](NC(=O)[C@H](C)NC(=O)[C@H](Cc1c[nH]c2ccccc12)NC(=O)[C@H](Cc1c[nH]cn1)NC(C)=O)C(C)C)C(N)=O [Acetyl-GRP 20-27, reference compound] | – | – | – | effect on HPV-16 E7 protein binding to the RBG protein ([1]; concentrations up to 60 uM): no effect; inhibition of the binding of the HPV E7 protein to the RBG protein (in words) [1]: can not inhibit
2 | CC[C@H](NC(=O)[C@H](Cc1ccc(O)cc1)NC(=O)[C@H](CC(C)C)NC(=O)[C@H](CC(=O)O)NC(=O)[C@@H](N)[C@@H](C)O)C(=O)N[C@@H](Cc1ccc(O)cc1)C(=O)N[C@@H](CCC(=O)O)C(=O)N[C@@H](CCC(N)=O)C(=O)N[C@@H](CC(C)C)C(=O)N[C@@H](CC(N)=O)C(=O)N[C@@H](CC(=O)O)C(=O)N[C@@H](CO)C(=O)N[C@@H](CO)C(N)=O [Peptide 17, [ABU²⁴]-E7-(20-32)-AMIDE] (H-TDLY[Abu]YEQLNDSS-NH2) | 20 µM | – | – | –
3 | CC(=O)NCSC[C@H](NC(=O)[C@H](Cc1ccc(O)cc1)NC(=O)[C@H](CC(C)C)NC(=O)[C@H](CC(=O)O)NC(=O)[C@@H](N)[C@@H](C)O)C(=O)N[C@@H](Cc1ccc(O)cc1)C(=O)N[C@@H](CCC(=O)O)C(=O)N[C@@H](CCC(N)=O)C(=O)N[C@@H](CC(C)C)C(=O)N[C@@H](CC(N)=O)C(=O)N[C@@H](CC(=O)O)C(=O)N[C@@H](CO)C(=O)N[C@@H](CO)C(N)=O [Peptide 18, [ACM²⁴]-E7-(20-32)-AMIDE] (H-TDLYC(Acm)YEQLNDSS-NH2) | – | – | – | IC50 (RBG Protein/E7 [2]): > 100 µM
4 | Ac-DLYCYEQLN-NH2 [Peptide 14, N-Ac-E7-(21-29)-AMIDE] | – | 0.04 µM | – | IC50 (RBG Protein/E7 [2]): 1 µM
5 | Ac-LYCYEQLNDSS-NH2 [Peptide 15, N-Ac-E7-(22-32)-AMIDE] | 10 µM | – | 25 µM | –
6 | Ac-LYCYEQLNDSS-NH2 [Peptide C, Ac-Leu-Tyr-Cys-Tyr-Glu-Gln-Leu-Asn-Asp-Ser-Ser-NH₂] | – | – | – | concentration at which HPV-16 E7 protein binding to the RBG protein was inhibited ([1]; concentrations as low as): ≤ 1 µM
7 | Ac-TDLYCYEQLN [Peptide 12, N-Ac-E7-(20-29)-ACID] | – | 0.06 µM | – | –
8 | Ac-TDLYCYEQLN-NH2 [Peptide 13, N-Ac-E7-(20-29)-AMIDE] | – | 0.08 µM | – | –
9 | DLYCYEQLNDSS-NH2 [Peptide 10, E7-(21-32)-AMIDE] | – | 11.4 µM | – | IC50 (RBG Protein/E7 [2]): 20 µM
10 | E7-(14-29)-AMIDE (DLQPETTDLYCYEQLN-NH2; UniProt P03129 14-29, looked up, fragment) [Peptide 7] | – | – | 0.08 µM | –
11 | E7-(18-29)-AMIDE (ETTDLYCYEQLN-NH2; UniProt P03129 18-29, looked up, fragment) [Peptide 8] | 0.4 µM | – | 0.06 µM | –
12 | TDLFCYEQLN-NH2 [Peptide 19, [Phe²³]-E7-(20-29)-AMIDE] | 1 µM | – | 0.6 µM | –
13 | TDLYCFEQLN-NH2 [Peptide 20, [Phe²⁵]-E7-(20-29)-AMIDE] | 15 µM | – | > 50 µM | –
14 | TDLYCYE-NH2 [Peptide 6, E7-(20-26)-AMIDE] | 100 µM | – | 3.3 µM | –
15 | TDLYCYENLND-NH2 [Peptide 23, [Asn²⁷]-E7-(20-30)-AMIDE] | 1 µM | – | – | –
16 | TDLYCYEQ-NH2 [Peptide 5, [Gln27]]-E7-(20-27)-AMIDE] | 50 µM | – | 9.1 µM | –
17 | TDLYCYEQL-NH2 [Peptide 4, E7-(20-28)-AMIDE] | 5 µM | – | 0.7 µM | –
18 | TDLYCYEQLN [Peptide 11, E7-(20-29)-ACID] | – | 0.08 µM | – | –
19 | TDLYCYEQLN-NH2 [Peptide 9, E7-(20-29)-AMIDE] | – | 0.09 µM | – | IC50 (RBG Protein/E7 [2]): 1 µM
20 | TDLYCYEQLND-NH2 [Peptide 2, E7-(20-30)-AMIDE] | – | 0.08 µM | – | IC50 (RBG Protein/E7 [2]): 1 µM
21 | TDLYCYEQLNDSS-NH2 [Peptide 1, E7-(20-32)-AMIDE] | – | 0.05 µM | – | IC50 (RBG Protein/E7 [2]): 1 µM
22 | TDLYCYEQLNDSS-NH2 [Peptide A, Thr-Asp-Leu-Tyr-Cys-Tyr-Glu-Gln-Leu-Asn-Asp-Ser-Ser-NH₂] | – | – | – | reduction in HPV-16 E7 protein binding to the RBG protein ([1]; peptide at 2 uM): 60%; reduction in HPV-16 E7 protein binding to the RBG protein ([1]; peptide at 20 uM): 90%; reduction in HPV-16 E7 protein binding to the RBG protein ([1]; peptide at 40 uM): 90%; inhibition of the binding of the HPV E7 protein to the RBG protein (in words) [1]: inhibited
23 | TDLYCYQQL-NH2 [Peptide 21, [Gln²⁶]-E7-(20-28)-AMIDE] | > 100 µM | – | – | –
24 | TDLYSYEQLNDSS-NH2 [Peptide 16, [Ser²⁴]-E7-(20-32)-AMIDE] | 40 µM | – | – | –
25 | TNLYCYEQL-NH2 [Peptide 22, [Asn²¹]-E7-(20-28)-AMIDE] | > 100 µM | – | – | –
